In patent EP0108147B1, “Use of a protoberberine alkaloid and composition containing same” (MAROKO, Peter R., priority 1982, dated 1983):
Read-outs that look alike come from different tables or passages of the source.

What was measured:
Mongrel dogs = test: Protocol Z: continuous 35 minute infusion in anesthetized open-chest dogs, constant left ventricular pressure; assay type: in vivo; settings: for reduction of calculated peripheral resistance: 0.2 mg/Kg/min
Experimental: Mongrel dogs weighing between 15 and 25 kg were anesthetized with intravenous sodium thiamylal (20 mg/kg initially with additional doses given as needed). The dogs were intubated endotracheally, and respiration was maintained by a Harvard respirator. The chest was then opened in the fourth left intercostal space and the heart suspended temporarily in a pericardial cradle.
Aortic pressures were recorded through a polyethylene cannula introduced through the carotid artery (Statham P23 Db pressure transducer) and electrocardiogram (lead aVF) were recorded throughout the experiment on a polygraph (Gould Instruments). Another polyethylene cannula was placed in the left atrium for measurement of atrial pressure (Statham P23 Db pressure transducer). An electromagnetic flowmeter (Biotonix Laboratories) was placed around the ascending aorta and the aortic flow was recorded on a polygraph. Two catheters were inserted into the left ventricle through a femoral artery.
The first ("pigtail") served as a reference, while the second (Millar microtip transducer catheter) was connected through a Millar transducer (Millar Instruments, Houston, Texas) to the polygraph, where both left ventricular pressure curves were recorded simultaneously. The left ventricular end diastolic pressure was recorded separately through a Millar catheter. The first derivative of the left ventricular pressure (dP/dt) was obtained by electronic differentiation of the left ventricular pulse recorded through the Millar catheter.
A reservoir of blood was connected with the femoral artery in order to maintain constant left ventricular pressure during the experiment. In this protocol, similarly to protocol M, systemic arterial pressure was maintained constant in order to have accurate measurements of dP/dt which represent well left ventricular contractility when the systolic pressure is maintained constant. However, calculated total peripheral resistance will be higher (an underestimation of the fall). After stabilization of hemodynamics as reflected by continuously monitored parameters for 15 minutes, the substances to be studied were infused intravenously using a Harvard infusion pump. Registrations were made every 5 minutes at a paper speed of 200 mm/second, while all the parameters were recorded constantly at a speed of 2 mm/second. The dogs were randomly assigned to several groups: • Group a) Control - in these dogs a solution of 5% dextrose in water was infused in the same quantity as in the berberine treated animals (n = 7).
In all berberine, berberrubine coreximine and tetrahydropalmatine groiups the compounds were infused at constant rate for 35 minutes and the data analyzed at 5 minute intervals. • Group b) Berberine 0.7 mg/Kg/min (n = 10). • Group c) Berberine 0.2 mg/Kg/min (n = 7). • Group d) Berberine 0.02 mg/Kg/min (n = 7). • Group e) Berberrubine 0.2 mg/Kg/min (n = 7). • Group f) Tetrahydropalmatine 0.2 mg/Kg/min (n = 4). • Group g) Coreximine 0.2 mg/Kg/min (n = 8).
Therefore, group b, c and d were used to analyze the various effects of continuous infusion of berberine and its dose response and groups e and f and g used to examine the effects of these three other proberberines. Moreover, their effects were compared to the berberine treated dogs with the same dose (i.e. Group c).

[1] = system: closed-chest anesthetized dogs; settings: for change of diastolic pressure: berberine in addition to digitalis; for antiarrhythmic and antiarrhythmogenic result in the ouabain experiment: dog, in vivo
Experimental: A study was carried out to examine the effects of the simultaneous administration of berberine on digitalis (i.e. ouabain) produced arrhythmias.
The experiments were conducted in closed-chest anesthetized dogs which were randomized to three groups. All received ouabain 0.03 mg/Kg as a bolus intravenously and thereafter a continuous infusion with a constant rate of 0.0006 mg/Kg/min until death. […] The second group received simultaneously berberine 1 mg/Kg intravenously as a bolus and then 0.2 mg/Kg/min as a continous infusion. The third group received berberine only after the appearance of VEA in a frequency of 50% of more of all systoles.
Moreover, the effects of intravenous bolus injection of berberine (0.4 to 1 mg/Kg) was studied (in comparison to dextrose 5% injection).

Sprague-Daley rats = test: Rat model of acute coronary artery occlusion, mortality; assay type: in vivo; settings: for antiarrhythmic control after coronary artery occlusion: rat, in vivo
Text: Another series of experiments were done using the rat model of acute coronary artery occlusion. In these experiments the effect of berberine was examined on mortality. Thus, Sprague-Daley rats (Charles River) weighing over 300 grams were anesthetized with ether, their chest opened in the 5th left intercostal space their heart everted and the left main coronary occluded with a surgical stitch. Thereafter the heart was repositioned and the thorax closed with a purse string suture, as described in more detail by us previously (Maclean, Fishbein, M. C. Braunwald, E. and Maroco, P. R., Long Term Presentation of Ischemic Myocardium After Experimental Coronary Artery Occlusion. J. Clin. Inv. 61, pages 541-551, 1978 and also in Maclean, D., Fishbein, M. D., Maroko, P. R. and Braunwald, Hyaluronidase-Induced Reductions In Myocardial Infarct Size. Science, 194, pages 199-200 (1976)). The mortality in rats weighing over […] was greater than in smaller rats.
After finishing the surgical procedure, the rats were randomized into controls (injection of 5% dextrose in water) and berberine treated (1 mg/Kg intravenously as a bolus).

[2] = 0.7 mg/Kg/min, after 35 minutes
[3] = 0.7 mg/Kg/min, over the control
[4] = berberine started after the appearance of 50% of VEA

SMILES: COc1ccc2cc3[n+](cc2c1OC)CCc1cc2c(cc1-3)OCO2 [berberine]
- increase in dP/dt (Mongrel dogs; 0.002 mg/Kg/min, one additional dog): 20%
- increase of pulse pressure (Mongrel dogs; 0.02 mg/Kg/min (group d)): 18.5 ± 10%
- increase in dP/dt (Mongrel dogs; 0.02 mg/Kg/min, after 35 minutes): 35.8 ± 8.2%
- reduction of calculated peripheral resistance (Mongrel dogs): over 30%
- Stroke volume (SV) (Mongrel dogs; 0.2 mg/Kg/min (Table XIII)): increased significantly
- fall in diastolic arterial pressure (widening in the pulse-pressure, PP) relative to the other three drugs (Mongrel dogs; 0.2 mg/Kg/min (Table XIII)): more than twice as large
- fall of heart rate (HR) (Mongrel dogs; 0.2 mg/Kg/min (Table XIII)): 16-17%
- increase of aortic flow (stroke volume) (Mongrel dogs; 0.2 mg/Kg/min (group c)): 53.6 ± 17.7%
- reduction of heart rate (Mongrel dogs; 0.7 mg/Kg/min): 32 ± 3%
- increase in LV dP/dt (Mongrel dogs; 0.7 mg/Kg/min, after 5 minutes): 35%
- decrease of calculated total peripheral resistance (Mongrel dogs; [2]): 46.8 ± 9.3%
- increase of aortic pulse-pressure (Mongrel dogs; [2]): 125 ± 19%
- increase of peak aortic blood flow (Mongrel dogs; 0.7 mg/Kg/min, after 35 minutes, ascending aorta): 73%
- increase in LV dP/dt (Mongrel dogs; 0.7 mg/Kg/min, at 35 minutes): 43.2 ± 7.0%
- increase in cardiac output (Mongrel dogs; [3]): 75 ± 29%
- increase in stroke volume (calculated by planimetry) (Mongrel dogs; [3]): 169 ± 36%
- fall in heart rate (Mongrel dogs; at the smaller doses): no significant fall in heart rate
- QTc interval (Mongrel dogs; dog, in vivo): overall increase
- P-R interval (Mongrel dogs; i.v. for 60' (0.7 mg/Kg/min), total 42 mg/Kg): does not increase the P-R interval
- QRS complex or interval (Mongrel dogs; over the period of i.v. administration (Fig. XVII)): not increased
- average increase of QTc (Mongrel dogs; when dP/dt is increased by 43%): 16%
- occurrence of any arrhythmias (VEA more than 25%, VT or death) ([1]; after 60 minutes, all sixteen controls had): three had arrhythmias and six did not
- occurrence of any arrhythmias (VEA more than 25%, VT or death) ([1]; after 90 minutes, all controls had): four had arrhythmias and five did not
- occurrence of any arrhythmias (VEA more than 25%, VT or death) ([1]; at 30 minutes, control twelve had, four did not): one had arrhythmia and eight did not
- occurrence of any arrhythmias (VEA more than 25%, VT or death) ([1]; at 45 minutes, control fourteen had, two did not): three had arrhythmias and six had not
- change of diastolic pressure ([1]; 10 minutes): -9±5%
- change of diastolic pressure ([1]; 20 minutes): -13±9%
- change of diastolic pressure ([1]; 30 minutes): -13±10%
- change of diastolic pressure ([1]; 60 minutes): -20±11%
- amount of ouabain that provoked VT [1, 4]: 0.080 mg/kg
- delay of the appearance of sustained VT [1, 4]: more than 250%
- time of appearance of sustained VT ([1]; berberine started after the appearance of 50% of VEA, control 30.1±6.5): 84.5 ± 13.8 min
- dose of ouabain to provoke VT ([1]; berberine treated dogs (simultaneous)): 0.088 mg/kg
- injections effective in reverting VT into sinus rhythm within five minutes ([1]; intravenous bolus 0.4 to 1 mg/Kg, placebo none of twelve): 30 out of 41
- time of appearance of 25% of VEA ([1]; ouabain infusion + simultaneous berberine 1 mg/Kg bolus then 0.2 mg/Kg/min, controls 22±4.7): 66.5 ± 14.6 min
- prolongation of the time of appearance of VEA and VT ([1]; simultaneous berberine): around 300%
- time of appearance of 50% of VEA ([1]; simultaneous berberine, controls 23.9±4.7): 66.7 ± 15.3 min
- time of appearance of VT ([1]; simultaneous berberine, controls 30.1±6.5): 96.1 ± 15.1 min
- ventricular fibrillation ([1]; two berberine dogs): ventricular fibrillation reverted without any other therapy
- rats that died within the first fifteen minutes (Sprague-Daley rats; 1 mg/Kg intravenously as a bolus, controls seventeen out of twenty-four): six out of twenty- two

SMILES: COc1ccc2cc3[n+](cc2c1O)CCc1cc2c(cc1-3)OCO2 [berberrubine]
- reduction of calculated peripheral resistance (Mongrel dogs): did not show that property to that pronounced degree
- Stroke volume (SV) (Mongrel dogs; 0.2 mg/Kg/min (Table XIII)): just slightly (and not statistically significantly)
- fall of heart rate (HR) (Mongrel dogs; 0.2 mg/Kg/min (Table XIII)): 16-17%
- antiarrhythmic and antiarrhythmogenic result in the ouabain experiment [1]: satisfactory results
- antiarrhythmic control after coronary artery occlusion (Sprague-Daley rats): like antiarrhythmic control is observable

SMILES: COc1cc2c(cc1O)C[C@H]1c3cc(O)c(OC)cc3CCN1C2 [coreximine]
- reduction of calculated peripheral resistance (Mongrel dogs): did not show that property to that pronounced degree
- Stroke volume (SV) (Mongrel dogs; 0.2 mg/Kg/min (Table XIII)): increased significantly
- fall of heart rate (HR) (Mongrel dogs; 0.2 mg/Kg/min (Table XIII)): 16-17%
- antiarrhythmic and antiarrhythmogenic result in the ouabain experiment [1]: satisfactory results
- antiarrhythmic control after coronary artery occlusion (Sprague-Daley rats): like antiarrhythmic control is observable
